Measured values taken from article PMC10920834, “Synthesis, anticancer activity, and molecular docking of half-sandwich iron(II) cyclopentadienyl complexes with maleimide and phosphine or phosphite ligands” (Scientific Reports, 2024).

Key:
Format in all cases: cell-based, human
PBM cells = experiment: Cell viability resazurin assay, PBM cells; conditions: for viability of PBM cells relative to control: ± SD
Excerpt: Peripheral blood mononuclear (PBM) cells were isolated from a leukocyte-buffy coat collected from the blood of healthy, non-smoking donors at the Blood Bank in Lodz, Poland. The study protocol received approval from the Committee for Research on Human Subjects of the University of Lodz (17/KBBN-UŁ/III/2019). The initial step of isolation process involved mixing buffy coats with PBS in a 1:1 ratio. Subsequently, the mixture was centrifuged using a density gradient of Lymphosep (Cytogen, Zgierz, Poland) at 2200 RPM for 20 min, employing the lowest values for acceleration and deceleration. PBM cells were collected and washed three times by centrifugation with 1 × PBS. Following isolation, the cells were suspended in RPMI 1640 medium.
(§1) Firstly, resazurin salt powder was dissolved in sterile 1 × PBS. Cells were then seeded on the 96-well plates in the count of 1 × 10^4 in the case of HL-60 cells and of 5 × 10^4 for PBM cells and of 5 × 10^3 for A549 cells per well. A549 cells were seeded 24 h prior to treatment with the complexes to allow cell adherence to 96-well plate. Iron(II) complexes were added to wells to obtain final concentrations of 0.5, 1, 2.5, 5, 10, 25, 50, 100 and 250 μM. Subsequently, plates were incubated at 37 °C in 5% CO2 for 2 h and 24 h. After that 10 μl of resazurin salt was added to each well and plates again were incubated in 37 °C in 5% CO2 for 2 h. Finally, fluorescence was measured with microplate reader Synergy HT (Bio-Tek Instruments, USA) using an excitation wavelength of 530/25 and an emission wavelength of 590/35 nm. The effects of iron(II) complexes were calculated as the percentage of control fluorescence. IC50 (half maximal inhibitory concentration) values were calculated using a website algorithm (https://www.aatbio.com/tools/ic50-calculator). All assays were performed in octuplicate.

HL-60 cells [1] = experiment: Alkaline comet assay, HL-60 cells
Method: Selected iron(II) complexes were added to the suspension of the cells to give final concentrations of 1, 5, 10, 25 and 50 μM. HL-60 and A549 cells were incubated with the complexes for 2 h at 37 °C. The comet assay was performed under alkaline conditions according to the procedure of Tokarz et al.[45]. […] Next, the cells were lysed for 1 h at 4 °C in a buffer containing 2.5 M NaCl, 0.1 M EDTA, 10 mM Tris, 1% Triton X-100, pH 10. Following the lysis, the slides were placed in an electrophoresis unit. DNA was allowed to unwind for 20 min in the solution containing 300 mM NaOH and 1 mM EDTA, pH > 13. […] After separation, the slides were washed in water, drained, stained with 2 μg/ml DAPI and covered with cover slips. As a prevention from additional DNA damage, the procedure described above was conducted under limited light or in the dark. Each experiment included the positive control—cells incubated with H2O2 at 20 µM for 15 min on ice (data not shown).
The comets obtained after single cell gel electrophoresis were analysed in the following manner. […] Hundred images of singular comets were randomly selected from each sample and the mean value of DNA in comet tail was taken as an index of DNA damage (expressed in percent).

HL-60 cells [2] = experiment: Cell viability resazurin assay, HL-60 cells; conditions: for viability of HL-60 cells relative to control: ± SD
Method: (§2) The A549 (human non-small cell lung cancer) cell line was obtained from the American Type Culture Collection (ATCC) and cultured in Dulbecco's Modified Eagle Medium (DMEM) with 10% fetal bovine serum (FBS), 2 mM L-Glutamine, 25 mM HEPES and penicillin/streptomycin solution (100 U/ml and 100 µg/ml, respectively). The HL-60 (human promyelocytic leukemia) cell line was also obtained from the American Type Culture Collection (ATCC) and cultured in Iscove’s Modified Dulbecco's Medium (IMDM) with 15% fetal bovine serum (FBS), 2 mM L-Glutamine, 25 mM HEPES and penicillin/streptomycin solution (100 U/ml and 100 µg/ml, respectively). Both cell lines were cultured in flasks at 37 °C in 5% CO2 and sub-cultured every 2–3 days to maintain exponential growth.
as §1

A549 cells = experiment: Cell viability resazurin assay, A549 cells; conditions: for viability of A549 cells relative to control: ± SD
Method: as §2, §1

## O=C1C=CC(=O)[N-]1.[C-]#[O+].[C-]#[O+].[Fe+2].c1cc[cH-]c1 [compound 1, CpFe(CO)2(η^1-N-maleimidato)]
PBM cells; 2 h incubation, 0.5 µM
  viability of PBM cells relative to control: 101.07 ± 0.78%
PBM cells; 2 h incubation, 1 µM
  viability of PBM cells relative to control: 100.74 ± 0.73%
PBM cells; 2 h incubation, 2.5 µM
  viability of PBM cells relative to control: 99.56 ± 1.96%
PBM cells; 2 h incubation, 5 µM
  viability of PBM cells relative to control: 99.26 ± 2.82%
PBM cells; 2 h incubation, 10 µM
  viability of PBM cells relative to control: 101.49 ± 4.25%
PBM cells; 2 h incubation, 25 µM
  viability of PBM cells relative to control: 99.86 ± 1.87%
PBM cells; 2 h incubation, 50 µM
  viability of PBM cells relative to control: 100.66 ± 0.97%
PBM cells; 2 h incubation, 100 µM
  viability of PBM cells relative to control: 100.59 ± 1.01%
PBM cells; 2 h incubation, 250 µM
  viability of PBM cells relative to control: 93.17 ± 2.92%
PBM cells; 24 h incubation
  IC50: 106 µM
PBM cells; 24 h incubation, 0.5 µM
  viability of PBM cells relative to control: 106.05 ± 1.67%
PBM cells; 24 h incubation, 1 µM
  viability of PBM cells relative to control: 103.84 ± 0.59%
PBM cells; 24 h incubation, 2.5 µM
  viability of PBM cells relative to control: 99.3 ± 1.2%
PBM cells; 24 h incubation, 5 µM
  viability of PBM cells relative to control: 91.84 ± 1.72%
PBM cells; 24 h incubation, 10 µM
  viability of PBM cells relative to control: 85.39 ± 1.19%
PBM cells; 24 h incubation, 25 µM
  viability of PBM cells relative to control: 89.23 ± 0.44%
PBM cells; 24 h incubation, 50 µM
  viability of PBM cells relative to control: 78.87 ± 1.76%
PBM cells; 24 h incubation, 100 µM
  viability of PBM cells relative to control: 50.82 ± 1.08%
PBM cells; 24 h incubation, 250 µM
  viability of PBM cells relative to control: 21.96 ± 0.71%
HL-60 cells [1]; 2 h incubation, 1-50 μM tested
  DNA damage in HL-60 cells (alkaline comet assay), in words: induced DNA damage
HL-60 cells [1]; HL-60 cells, 2 h, 50 μM
  DNA in tail (alkaline comet assay): 25%
HL-60 cells [2]; 2 h incubation, 0.5 µM
  viability of HL-60 cells relative to control: 101.68 ± 0.96%
HL-60 cells [2]; 2 h incubation, 1 µM
  viability of HL-60 cells relative to control: 101.06 ± 1.48%
HL-60 cells [2]; 2 h incubation, 2.5 µM
  viability of HL-60 cells relative to control: 100.83 ± 2.04%
HL-60 cells [2]; 2 h incubation, 5 µM
  viability of HL-60 cells relative to control: 97.79 ± 1.25%
HL-60 cells [2]; 2 h incubation, 10 µM
  viability of HL-60 cells relative to control: 89.74 ± 2.7%
HL-60 cells [2]; 2 h incubation, 25 µM
  viability of HL-60 cells relative to control: 83.96 ± 1.62%
HL-60 cells [2]; 2 h incubation, 50 µM
  viability of HL-60 cells relative to control: 73.55 ± 0.27%
HL-60 cells [2]; 2 h incubation, 100 µM
  viability of HL-60 cells relative to control: 24.73 ± 1.89%
HL-60 cells [2]; 2 h incubation, 250 µM
  viability of HL-60 cells relative to control: 15.71 ± 0.21%
HL-60 cells [2]; 24 h incubation
  IC50: 7.69 µM
HL-60 cells [2]; 24 h incubation, 0.5 µM
  viability of HL-60 cells relative to control: 106.53 ± 5.45%
HL-60 cells [2]; 24 h incubation, 1 µM
  viability of HL-60 cells relative to control: 107.4 ± 3.25%
HL-60 cells [2]; 24 h incubation, 2.5 µM
  viability of HL-60 cells relative to control: 109.43 ± 1.41%
HL-60 cells [2]; 24 h incubation, 5 µM
  viability of HL-60 cells relative to control: 89.27 ± 2.42%
HL-60 cells [2]; 24 h incubation, 10 µM
  viability of HL-60 cells relative to control: 42.91 ± 0.62%
HL-60 cells [2]; 24 h incubation, 25 µM
  viability of HL-60 cells relative to control: 37.45 ± 1.48%
HL-60 cells [2]; 24 h incubation, 50 µM
  viability of HL-60 cells relative to control: 30.99 ± 0.27%
HL-60 cells [2]; 24 h incubation, 100 µM
  viability of HL-60 cells relative to control: 14.21 ± 0.37%
HL-60 cells [2]; 24 h incubation, 250 µM
  viability of HL-60 cells relative to control: 3.83 ± 0.21%
A549 cells; 2 h incubation, 0.5 µM
  viability of A549 cells relative to control: 93.79 ± 10.65%
A549 cells; 2 h incubation, 1 µM
  viability of A549 cells relative to control: 93.56 ± 10.37%
A549 cells; 2 h incubation, 2.5 µM
  viability of A549 cells relative to control: 78.45 ± 9.98%
A549 cells; 2 h incubation, 5 µM
  viability of A549 cells relative to control: 67.97±12.88%
A549 cells; 2 h incubation, 10 µM
  viability of A549 cells relative to control: 63.34 ± 13%
A549 cells; 2 h incubation, 25 µM
  viability of A549 cells relative to control: 51.29 ± 9.65%
A549 cells; 2 h incubation, 50 µM
  viability of A549 cells relative to control: 41.64 ± 8.89%
A549 cells; 2 h incubation, 100 µM
  viability of A549 cells relative to control: 36.49 ± 6.19%
A549 cells; 2 h incubation, 250 µM
  viability of A549 cells relative to control: 36.35 ± 4.86%
A549 cells; 24 h incubation
  IC50: 54.2 µM
A549 cells; 24 h incubation, 0.5 µM
  viability of A549 cells relative to control: 75.31 ± 7.67%
A549 cells; 24 h incubation, 1 µM
  viability of A549 cells relative to control: 70.02 ± 8.73%
A549 cells; 24 h incubation, 2.5 µM
  viability of A549 cells relative to control: 73.33 ± 7.65%
A549 cells; 24 h incubation, 5 µM
  viability of A549 cells relative to control: 104.37 ± 10.70%
A549 cells; 24 h incubation, 10 µM
  viability of A549 cells relative to control: 108.72 ± 15.90%
A549 cells; 24 h incubation, 25 µM
  viability of A549 cells relative to control: 82.97 ± 8.04%
A549 cells; 24 h incubation, 50 µM
  viability of A549 cells relative to control: 50.31 ± 12.68%
A549 cells; 24 h incubation, 100 µM
  viability of A549 cells relative to control: 9.43 ± 1.69%
A549 cells; 24 h incubation, 250 µM
  viability of A549 cells relative to control: 2.35 ± 0.49%
